Legend:
[1] = tested on: TGF-b induced Endothelin-1 production; assay: ET-1 assay: inhibitory effect on TGF-b induced endothelin-1 production; format: cell-based; conditions: Homo sapiens, Fibroblast; fibroblasts, stimulant (TGFb, serum, LPA etc), ET-1 in media by ELISA, 4-parameter fit
Procedure, shortened: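 Fibroblasts (primary human lung/dermal, HFL-1, 3T3) serum-starved 0-48 h, preincubated ~30 min with compound, then stimulated (TGFb, serum or LPA) for 16-48 h. Secreted ET-1 measured by ELISA; EC50 from 4-parameter logistic fit, with CC50 from ATPlite in the same wells.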

[2] = tested on: Fibroblasts (primary human lung and dermal, HFL-1, 3T3 etc); assay: Cell proliferation assay (BrdU incorporation); format: cell-based; conditions: HFL1, stimulant (LPA, TGFb, serum etc), 50% inhibition of the increase of BrdU incorporation
Experimental: Assay of Inhibitory Effect on Cell Proliferation (BrdU Incorporation)
Fibroblasts (primary human lung and dermal, HFL-1, 3T3 etc) were plated on a 96-well plate and serum starved for 24-48 hours. The media were then exchanged for media containing stimulants (LPA, TGFb, serum etc) and cultured further for 16-24 hours before BrdU addition. After culturing for another 8 hours, cells were washed with PBS and the amount of BrdU incorporated into the cells was assayed by absorbance at 450 nm using the Cell proliferation ELISA system (RPN250, Amersham LIFE SCIENCE). The difference between the amount of BrdU incorporated in the stimulant-added well and the amount of BrdU incorporated in the well containing no stimulant represented the amount of BrdU incorporation accelerated by stimulant. The increase of BrdU incorporation without the addition of test compounds was set as 100% and the concentration of compound with 50% inhibition in the increase of BrdU incorporation (IC50 value) was determined. The test compounds were added 0-30 min before stimulant addition.
Compounds of some embodiments were prepared according to synthetic methods described herein and assay data obtained for IC50 for BrdU inhibition. The assay data obtained is presented in Table 3, in which A=less than 50 μM, B=greater than or equal to 50 μM and less than or equal to 200 μM; and C=greater than 200 μM.

Compound	EC50 [1]	IC50 [2]
O=c1c2[nH]ccc2ccn1-c1ccc(OC(F)(F)F)cc1 [Compound 609]	< 50 µM	< 50 µM
Cc1cc(=O)n(-c2ccc(OC(F)(F)F)cc2)cc1-c1cn[nH]c1 [Compound 218]	< 50 µM	< 50 µM
Cn1cc(-c2cn(-c3ccc(OC(F)(F)F)cc3)c(=O)c3[nH]nnc23)cn1 [Compound 631]	< 50 µM	> 200 µM
CNC(=O)Nc1cccc(-n2cc(-c3ccc(F)cc3)c(C)cc2=O)c1 [Compound 419]	50 to 200 µM	50 to 200 µM
Cc1cc(=O)n(-c2ccc(OC(F)(F)F)cc2)cc1-c1ccc2nccn2c1 [Compound 252]	50 to 200 µM	50 to 200 µM
Cc1cc(=O)n(-c2cccc(C(N)=O)c2)cc1-c1ccc(F)cc1 [Compound 189]	> 200 µM	> 200 µM
Cc1cc(=O)n(-c2ccc(OC(F)(F)F)cc2)cc1-c1ccc2c(c1)OCCO2 [Compound 201]	50 to 200 µM	< 50 µM
Cc1cc(=O)n(-c2ccc(OC(F)(F)F)cc2)cc1-c1ccc(F)c(F)c1 [Compound 196]	50 to 200 µM	< 50 µM
Cc1cc(=O)n(-c2ccc(OC(F)(F)F)cc2)cc1-c1cccc2c1OCCO2 [Compound 204]	< 50 µM	< 50 µM
CCOc1ccc(-n2cc(-c3cn[nH]c3)c3ccn(C)c3c2=O)c(C)c1 [Compound 601]	< 50 µM	< 50 µM
COc1cc(=O)n(-c2ccc(OC(F)(F)F)cc2)cc1-c1cnn(C)c1 [Compound 120]	< 50 µM	< 50 µM
CCOc1ccc(-n2cc(-c3ccc(F)cc3)c(C)cc2=O)c(C)c1 [Compound 175]	50 to 200 µM	< 50 µM
Cc1cc(=O)n(-c2cccc3c2OCO3)cc1-c1ccc(F)cc1 [Compound 184]	50 to 200 µM	< 50 µM
CCn1ccc2c(=O)n(-c3ccc(OC(F)(F)F)cc3)cc(-c3ccc(F)cc3)c21 [Compound 626]	< 50 µM	< 50 µM
Cn1cc(-c2cn(-c3ccc(OC(F)(F)F)cc3)c(=O)cc2NCc2ccccn2)cn1 [Compound 161]	< 50 µM	< 50 µM
COc1cc(-n2cc(-c3ccc(F)cc3)c(C)cc2=O)cc(OC)c1OC [Compound 180]	50 to 200 µM	< 50 µM
COc1cccc(-n2cc(C(F)(F)F)ccc2=O)c1 [Compound 276]	> 200 µM	> 200 µM
Cc1cc(=O)n(-c2ccc(OC(F)(F)F)cc2)cc1-c1ccc2ocnc2c1 [Compound 254]	< 50 µM	< 50 µM
COCCOCCOCCOc1ccc(-n2cc(C(C)=O)ccc2=O)cc1 [Compound 21]	> 200 µM	> 200 µM
Cn1ccc2c(-c3cn[nH]c3)cn(-c3ccc(OC(F)(F)F)cc3)c(=O)c21 [Compound 602]	< 50 µM	< 50 µM
Cn1cc(-c2cn(-c3ccc(OC(F)(F)F)cc3)c(=O)c3cccnc23)cn1 [Compound 43]	< 50 µM	> 200 µM

Compound	EC50 [1]	IC50 [2]
Cn1cc(-c2cn(-c3ccc(OC(F)(F)F)cc3)c(=O)cc2Oc2ccc(F)cc2)cn1 [Compound 410]	< 50 µM	< 50 µM
O=C(c1ccccc1)n1cc(-c2ccc(=O)n(-c3ccccc3)c2)cn1 [Compound 68]	> 200 µM	> 200 µM
Cc1cc(-c2ccc(F)cc2)cn(-c2ccccc2)c1=O [Compound 351]	< 50 µM	50 to 200 µM
Cc1cc(=O)n(-c2ccc(OC(F)(F)F)cc2)cc1-c1cccc(F)c1 [Compound 192]	< 50 µM	< 50 µM
O=c1c2[nH]ncc2c(-c2ccc(F)cc2)cn1-c1ccc(OC(F)(F)F)cc1 [Compound 689]	< 50 µM	< 50 µM
Cn1cc(-c2cn(-c3ccc(OC(F)(F)F)cc3)c(=O)c3ncn(C)c23)cn1 [Compound 59]	< 50 µM	< 50 µM
Cc1cc(=O)n(-c2ccc(Cl)cc2)cc1-c1cn[nH]c1 [Compound 431]	> 200 µM	50 to 200 µM
Cc1cc(=O)n(-c2cccc(NC(=O)N(C)C)c2)cc1-c1ccc(F)cc1 [Compound 417]	< 50 µM	< 50 µM
CCn1ccc2c(-c3ccc(F)cc3)c[nH]c(=O)c21 [Compound 595]	< 50 µM	50 to 200 µM
Cn1cnc2c(-c3ccc(F)cc3)cn(-c3ccc(OC(F)(F)F)cc3)c(=O)c21 [Compound 58]	< 50 µM	< 50 µM
Cn1cc(-c2cn(-c3ccc(OC(F)(F)F)cc3)c(=O)c3c2ccn3C2CC2)cn1 [Compound 649]	< 50 µM	50 to 200 µM
Cn1cc(-c2cn(-c3ccc(OC(F)(F)F)cc3)c(=O)cc2NCc2c(F)cccc2F)cn1 [Compound 133]	50 to 200 µM	50 to 200 µM
CCn1c(=O)oc2cc(-c3cn(-c4ccc(OC(F)(F)F)cc4)c(=O)cc3C)ccc21 [Compound 430]	< 50 µM	< 50 µM
CCn1cnc2c(-c3cnn(C)c3)c[nH]c(=O)c21 [Compound 618]	50 to 200 µM	50 to 200 µM
Cc1cn(C)c2c(=O)n(-c3ccc(OC(F)(F)F)cc3)cc(-c3ccc(F)cc3)c12 [Compound 49]	< 50 µM	< 50 µM
Cc1cc(=O)n(-c2ccc(OC(F)(F)F)cc2)cc1-c1ccc2c(c1)OCO2 [Compound 202]	50 to 200 µM	< 50 µM
Cn1cc(-c2cn(-c3ccc(OC(F)(F)F)cc3)c(=O)c3nccnc23)cn1 [Compound 47]	< 50 µM	< 50 µM
O=c1c2c(ccn2C2CC2)c(-c2cn[nH]c2)cn1-c1ccc(OC(F)(F)F)cc1 [Compound 650]	< 50 µM	< 50 µM
Cc1cc(=O)n(-c2ccc(OC(F)(F)F)cc2)cc1-c1ccc2c(c1)OCC(=O)N2 [Compound 424]	50 to 200 µM	< 50 µM
Cn1ccc2c(-c3cn[nH]c3)cn(-c3ccc(C#N)cc3)c(=O)c21 [Compound 600]	< 50 µM	> 200 µM
CCn1nc2c(-c3cnn(C)c3)cn(-c3ccc(OCCOC)cc3)c(=O)c2n1 [Compound 688]	50 to 200 µM	50 to 200 µM

Compound	EC50 [1]	IC50 [2]
Cc1nc2c(-c3cnn(C)c3)cn(-c3ccc(OC(F)(F)F)cc3)c(=O)c2s1 [compound 584]	< 50 µM	< 50 µM
CCOc1ccc(-n2cc(-c3cnn(C)c3)c(NCc3ccccc3)cc2=O)c(C)c1 [Compound 543]	< 50 µM	< 50 µM
O=c1ccc(-c2cnn(Cc3ccccc3)c2)cn1-c1ccccc1 [Compound 385]	50 to 200 µM	< 50 µM
Cc1cc(=O)n(-c2ccc(OC(F)(F)F)cc2)cc1-c1ccnnc1 [Compound 243]	50 to 200 µM	> 200 µM
O=c1c2nccnc2c(-c2cn[nH]c2)cn1-c1ccc(Cl)cc1 [Compound 399]	> 200 µM	< 50 µM
CCOc1ccc(-n2cc(-c3ccc(F)cc3)c(OC)cc2=O)c(C)c1 [Compound 119]	< 50 µM	< 50 µM
Cc1ccc(=O)n(-c2cc(F)c(F)c(F)c2)c1 [Compound 282]	> 200 µM	> 200 µM
Cc1cc(=O)n(-c2cccc3c2OCCO3)cc1-c1ccc(F)cc1 [Compound 185]	50 to 200 µM	< 50 µM
CC(C)n1ccc2c(-c3cn[nH]c3)cn(-c3ccc(OC(F)(F)F)cc3)c(=O)c21 [Compound 648]	< 50 µM	< 50 µM
O=c1ccc(-c2cn[nH]c2)cn1-c1ccc(OC(F)(F)F)cc1 [Compound 374]	< 50 µM	50 to 200 µM
Cn1cc(-c2cn(-c3ccc(OC(F)(F)F)cc3)c(=O)cc2NCc2cnccn2)cn1 [Compound 411]	50 to 200 µM	< 50 µM
Cc1cc(=O)n(-c2ccc(OC(F)(F)F)cc2)cc1-c1ccc2c(c1)N(C)C(=O)CO2 [Compound 210]	< 50 µM	> 200 µM
CC(C)Oc1ccc(-n2cc(-c3cccc(Cl)c3)ccc2=O)cc1 [Compound 316]	< 50 µM	< 50 µM
O=c1c2[nH]ccc2c(-c2cn[nH]c2)cn1-c1ccc(Cl)cc1 [Compound 606]	< 50 µM	< 50 µM
Cc1cn(-c2ccccc2)c(=O)c2c1CCCC2 [Compound 29]	50 to 200 µM	> 200 µM
Cc1cc(=O)n(-c2ccc(OC(F)(F)F)cc2)cc1-c1ccc2ccn(C)c2c1 [Compound 258]	< 50 µM	< 50 µM
O=C1COc2c(-c3ccc(F)cc3)cn(-c3ccc(OC(F)(F)F)cc3)c(=O)c2N1 [Compound 52]	> 200 µM	> 200 µM
O=C1CNCCN1CCOc1cc(=O)n(-c2ccc(OC(F)(F)F)cc2)cc1-c1ccc(F)cc1 [Compound 101]	> 200 µM	50 to 200 µM
CCn1c(=O)oc2ccc(-c3c[nH]c(=O)cc3C)cc21 [Compound 562]	< 50 µM	< 50 µM
Cc1cc(-c2cnn(C)c2)cn(-c2ccccc2)c1=O [Compound 353]	50 to 200 µM	> 200 µM

From US10233195B2, “Anti-fibrotic pyridinones” (InterMune, Inc., priority 2014, dated 2019)
